Usually EC50 stands for the concentration needed to bring the measured effect to its halfway point.

This note sets out measurements from patent US20060247244A1, “Quinoxalinones and their use especially in the treatment of cardiovascular diseases” (BAYER HEALTHCARE AG, priority 2002, published 2006).

This test concerns the target T1, human M2 acetylcholine receptor (M2AChR) (Homo sapiens, UniProt P08172).
T1 construct: expressed in transfected cells; host or cells: CHO K1 (Chinese hamster ovary) cells constitutively expressing mitochondrially targeted aequorin and stably transfected with Galpha16
T1 sequence (P08172 1-466): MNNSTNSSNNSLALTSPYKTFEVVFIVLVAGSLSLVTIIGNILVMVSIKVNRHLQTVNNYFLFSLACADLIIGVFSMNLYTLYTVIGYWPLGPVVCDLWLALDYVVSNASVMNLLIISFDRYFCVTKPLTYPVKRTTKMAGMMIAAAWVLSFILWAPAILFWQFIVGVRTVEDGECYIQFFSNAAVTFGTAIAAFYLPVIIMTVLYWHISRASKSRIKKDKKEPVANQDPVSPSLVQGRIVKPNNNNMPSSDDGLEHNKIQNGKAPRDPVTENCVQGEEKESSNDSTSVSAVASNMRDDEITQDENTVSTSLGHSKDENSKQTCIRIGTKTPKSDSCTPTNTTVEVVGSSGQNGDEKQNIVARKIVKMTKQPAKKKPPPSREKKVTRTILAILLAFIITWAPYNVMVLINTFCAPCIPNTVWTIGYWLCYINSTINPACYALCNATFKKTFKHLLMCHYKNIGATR
Nature of the test: Cellular functional in vitro test (aequorin luminescence in recombinant CHO K1 cells). Conditions: agonist activity; CHO K1 cells expressing human M2AChR, aequorin and Gα16; luminescence readout. Format: cell-based. The text has this:
A recombinant cell line was used to identify agonists of the human M2 acetylcholine receptor (M2A ChR) and to quantify the activity of the substances described herein. The cell is originally derived from a hamster ovary epithelial cell (Chinese Hamster Ovary, CHO K1, ATCC: American Type Culture Collection, Manassas, Va. 20108, USA). The test cell line constitutively expresses a modified form of the calcium-sensitive photoprotein aequorin which after reconstitution with the cofactor coelenterazine emits light when the free calcium concentration in the inner mitochondrial compartment is increased (Rizzuto R. Simpson A W, Brini M, Pozzan T.; Nature 358 (1992) 325-327). The cell is additionally stably transfected with the human M2AChR (Peralta E G, Ashkenazi A, Winslow J W, Smith D H, Ramachandran J, Capon, D J, EMBO Journal 6 (1987) 3923-3929) and with the gene which codes for the promiscuous Gα16 protein (Amatruda T T, Steele D A, Slepak V Z, Simon M I, Proceedings in the National Academy of Science USA 88 (1991), 5587-5591). The resulting M2AChR test cell responds to stimulation of the recombinant M2ACh receptor with an intracellular release of calcium ions, which can be quantified through the resulting aequorin luminescence with a suitable luminometer (Milligan G, Marshall F, Rees S, Trends in Pharmacological Sciences 17 (1996) 235-237).
Test procedure: The cells are plated out on the day before the test in culture medium (DMEM, 10% FCS, 2 mM glutamine, 10 mM HEPES; Gibco Cat.#21331-020; now belongs to: Invitrogen GmbH, 76131 Karlsruhe) in 384 (or 1536) well microtiter plates and kept in a cell incubator (96% humidity, 5% v/v CO2, 37° C.). On the day of the test, the culture medium is replaced by a Tyrode solution (in mM: 140 NaCl, 5 KCl, 1 MgCl2, 2 CaCl2, 20 glucose, 20 HEPES) which additionally contains the cofactor coelenterazine (50 μM), and the microtiter plate is then incubated for a further 3-4 hours. Immediately after the test substances have been transferred into the wells of the microtiter plate, the resulting light signal is measured in the luminometer.
On to `O=C(NCc1ccsc1)c1ccc2c(c1)N(C(=O)CNC1CCCCC1)CC(=O)N2C1CC1` [Example 12, 4-(N-Cyclohexylglycyl)-1-cyclopropyl-2-oxo-N-(3-thienylmethyl)-1,2,3,4-tetrahydro-6-quinoxalinecarboxamide], for which the EC50 came out at 1800 nM.

Regarding `CC(NC(=O)c1ccc2c(c1)N(C(=O)CNC1CCCCC1)CC(=O)N2C1CC1)c1ccncc1` (single isomer, unassigned; (+)) [Example 7, (+)-4-(N-Cyclohexylglycyl)-1-cyclopropyl-2-oxo-N-[1-(4-pyridinyl)ethyl]-1,2,3,4-tetrahydro-6-quinoxalinecarboxamide], the EC50 worked out at 5 nM.

For the molecule `C[C@H](NC(=O)c1ccc2c(c1)N(C(=O)CNCC(C)(C)C)CC(=O)N2C1CC1)c1ccncc1` [Example 23], the EC50 was determined as 18 nM.

Regarding `CC(NC(=O)c1ccc2c(c1)N(C(=O)CNC1CCCCC1)CC(=O)N2C1CC1)c1cccnc1` (stereo not shown) [Example 5, 4-(N-Cyclohexylglycyl)-1-cyclopropyl-2-oxo-N-[1-(3-pyridinyl)ethyl]-1,2,3,4-tetrahydro-6-quinoxalinecarboxamide], the EC50 worked out at 37 nM.

Consider “4-N-[(1-S-Methyl-(2-methylbutyl)glycyl]-1-cyclopropyl-2-oxo-N-[(3-pyridinyl-4-methoxy)ethyl]-1,2,3,4-tetrahydro-6-quinoxalinecarboxamide [Example 26]”, for which the EC50 was 16 nM.

Take “4-N-[(1-S-Methyl-(2-methylbutyl)glycyl]-1-cyclopropyl-2-oxo-N-[1-S-(4-pyridinyl)-ethyl]-1,2,3,4-tetrahydro-6-quinoxalinecarboxamide [Example 25]”: the EC50 was determined as 6 nM.

For `CC(NC(=O)c1ccc2c(c1)N(C(=O)CNC1CCC1)CC(=O)N2C1CC1)c1cccnc1` (stereo not shown) [Example 2, 4-(N-Cyclobutylglycyl)-1-cyclopropyl-2-oxo-N-[1-(3-pyridinyl)ethyl]-1,2,3,4-tetra-hydro-6-quinoxalinecarboxamide], the EC50 turned out to be 1000 nM.

`C[C@H](NC(=O)c1ccc2c(c1)N(C(=O)CN[C@@H](C)C(C)(C)C)CC(=O)N2C1CC1)c1ccncc1` [Example 24]: the concentration giving a half-maximal response (EC50) amounted to 32 nM.

As to `CC1CCCC(NCC(=O)N2CC(=O)N(C3CC3)c3ccc(C(=O)NC(C)c4cccnc4)cc32)C1` (stereo not shown) [Example 11, 1-Cyclopropyl-4-[N-(3-methylcyclohexyl)glycyl]-2-oxo-N-[1-(3-pyridinyl)ethyl]-1,2,3,4-tetrahydro-6-quinoxalinecarboxamide], the EC50 came out at 320 nM.

Take `C[C@H](NC(=O)c1ccc2c(c1)N(C(=O)CN[C@H]1CC[C@H](O)CC1)CC(=O)N2C1CC1)c1ccncc1` [Example 22, 4-N-[(trans-4-Cyclohexanoyl)glycyl]-1-cyclopropyl-2-oxo-N-[1-S-(4-pyridinyl)-ethyl]-1,2,3,4-tetrahydro-6-quinoxalinecarboxamide]: the EC50 was 150 nM.
